Values joined by “and” are separate entries in the source; they are usually repeats but may differ in a detail not shown here. Equal entries are not always repeated. Structures can show the parent of a compound that is named as a salt. Where two headings read alike, the source gives them in different places. One block for each compound: values may come before it.
Key:
[1] = test system: beta adrenergic receptor (heart rate response to isoproterenol); assay: Duration and potency of beta-blocking action in vivo, 3-hour infusion in pentobarbital-anesthetized dogs; set-up: species or system dog; settings: for Potency / % I (Percent inhibition of heart rate response to isoproterenol) / Recovery Time 80% / Recovery Time 50%: Table II; for Potency: infusion rate adjusted so isoproterenol inhibition averaged about 50% at end of 3-hour infusion; for % I (Percent inhibition of heart rate response to isoproterenol): isoproterenol 0.5 μg/kg bolus, 3-hour infusion; for Recovery Time 80% / Recovery Time 50%: after termination of 3-hour infusion; for % Inhibition / Time for 50% Rec. / Time for 80% Rec.: Table IV, dose 2.4 / 22.0 ug/kg/min.
Method: The duration of β-blockade was determined in vivo using pentobarbital-anesthetized dogs instrumented for measurement of heart rate using a Beckman cardiotachometer triggered electronically by a phasic aortic blood pressure signal. Both vagus nerves were severed in the cervical region and the animals were mechanically ventilated. The experimental design used employed a 3-hour infusion of test compound. Bolus doses of isoproterenol (0.5 μg/kg) were used to assess the degree of β-blockade and recovery from β-blockade after […] of the infusion. The doses were spaced at 10-minute intervals and were given before, during and following the infusion of test compounds. The infusion rate was adjusted so that at the end of the 3-hour infusion period the degree of isoproterenol inhibition averaged about 50% of control. Following termination of blocker infusion, percent recovery from β-blockade was computed and the time associated with 80% recovery estimated.

[2] = target: T1, beta adrenergic receptor (guinea pig right atria) (Cavia porcellus, UniProt H0W3H1); assay: Beta-blocking activity in vitro, guinea pig right atria (blockade of isoproterenol rate response)
T1 construct: guinea pig right atria and guinea pig tracheal strips mounted in a tissue bath; from tissue; host or cells: guinea pig right atria, spontaneously beating

[3] = Enzymatic hydrolysis of beta blockers by dog blood (procedure C); type: in vitro ADME; settings: dog, blood, 37° C.; for remaining at 1 h: read-out: Percent drug remaining, dog blood, 1 HR; for remaining at 2 h: read-out: Percent drug remaining, dog blood, 2 HR
Method: (§1) Chemicals--Acetonitrile was "HPLC" grade. Distilled water was used to dissolve the compounds and 0.01N HCl was used to dissolve compounds requiring an acidic pH for dissolution.
(§2) Enzyme Source--Fresh aqueous humor was collected from eyes of dogs using a 23-gauge needle while fresh dog blood was collected into heparinized Vacutainer tubes. Fresh liver was homogenized in 0.9% NaCl using a Potter-Elvehjem Teflon pestle and glass homogenizer making a 25% (W/V) homogenate.
(§3) Incubation Condition--A 0.5 ml aliquot of dog aqueous humor, blood or liver homogenate was incubated with 12.5 μg (0.5 ml) of beta blocker in a Dubnoff shaking metabolic incubator at 37° C. for 60 and 120 min. Denatured tissue controls were prepared by adding 2.0 ml of acetonitrile into 0.5 ml of aqueous humor, blood or liver homogenate to destroy esterase activities prior to addition of the beta blockers. The controls were then incubated at 37° C. for 120 min. After 60 and 120 min, the incubations were terminated by addition of 2 ml of acetonitrile and immediately mixed by a Vortex® to stop esterase activities.
(§4) Sample Processing and Data Analyses--All samples were centrifuged at 4000 RPM for 10 min to sediment denatured proteins. The resultant supernatants were transferred to WISP® vials and analyzed using an HPLC assay developed for beta blockers. The hydrolysis of beta blockers by aqueous humor, blood and liver homogenate was determined by disappearance of the compounds. The extent of enzymatic hydrolysis by each tissue was determined by comparing the amount of each compound (absolute peak area) recovered at each time point to the amount of each compound (absolute peak area) in denatured tissue control and aqueous control samples. The results of these experiments are shown in Tabe III.

[4] = Enzymatic hydrolysis of beta blockers by dog liver homogenate (procedure C); type: in vitro ADME; settings: dog, liver homogenate, 37° C.; for remaining at 1 h: read-out: Percent drug remaining, dog liver homogenate, 1 HR; for remaining at 2 h: read-out: Percent drug remaining, dog liver homogenate, 2 HR
Method: as §1, §2, §3, §4

[5] = Enzymatic hydrolysis of beta blockers by dog aqueous humor (procedure C); type: in vitro ADME; settings: for remaining at 1 h / remaining at 2 h: 37° C.; for remaining at 1 h: read-out: Percent drug remaining, dog aqueous humor, 1 HR; for remaining at 2 h: read-out: Percent drug remaining, dog aqueous humor, 2 HR
Method: as §1, §2, §3, §4

[6] = Half-lives of beta blockers in dog whole blood (procedure D); type: in vitro ADME; settings: 37° C., read-out: T1/2 dog blood
Method: (§5) The rate of disappearance of a compound is expressed as the half-life (T1/2), which is the time period in which one half of the initial amount of compound tested disappears. In each experiment, 1 ml of a solution containing 50 μg of the test compound was added to 1 ml of whole blood or 1 ml of a 33% (w/v) liver homogenate. The samples were incubated in a Dubnoff shaking metabolic incubator for 2.5, 5.0, 10.0, 20.0, 30.0 and 60.0 minutes at 37° C. At the designated time periods, the test mixtures were removed from the incubator and transferred to a 0° C. ice bath. Acetonitrile (2 ml) was immediately added and the mixtures were mixed to stop enzymatic hydrolysis. Zero time samples were prepared by adding 2 ml of acetonitrile to denature the proteins prior to addition of the test compounds. After centrifugation to sediment denatured proteins, 2 ml of the supernatant was removed and analyzed by high pressure liquid chromatography, using a mobile phase of 60% acetonitrile/40% 0.05 m sodium phosphate buffer (pH 6.6), a U.V. detector and Waters u Bondapak Phenyl column. The half life of each test compound was determined graphically by plotting the decrease in concentrations as a function of time.

[7] = Half-lives of beta blockers in dog liver homogenate (procedure D); type: in vitro ADME; settings: 33% (w/v) homogenate, 37° C., read-out: T1/2 dog liver homogenate
Method: as §5

[8] = Table I, guinea pig right atria, isoproterenol agonist, 60-minute incubation, 37° C., read-out: PA2 Rt. Atria (converted)

T1 sequence (H0W3H1 1-470): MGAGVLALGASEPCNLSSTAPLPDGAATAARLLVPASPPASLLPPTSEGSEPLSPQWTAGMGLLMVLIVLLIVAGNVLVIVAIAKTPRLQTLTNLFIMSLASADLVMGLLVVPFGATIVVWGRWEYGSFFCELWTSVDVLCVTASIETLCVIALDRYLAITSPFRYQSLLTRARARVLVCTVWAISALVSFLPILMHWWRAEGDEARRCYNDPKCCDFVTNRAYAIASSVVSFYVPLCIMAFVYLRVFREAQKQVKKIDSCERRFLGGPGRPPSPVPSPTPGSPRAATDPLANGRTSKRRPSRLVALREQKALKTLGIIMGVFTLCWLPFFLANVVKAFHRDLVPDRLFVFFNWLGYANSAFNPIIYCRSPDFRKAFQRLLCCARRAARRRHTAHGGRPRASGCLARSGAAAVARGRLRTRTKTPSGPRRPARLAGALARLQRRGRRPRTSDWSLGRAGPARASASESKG

Compound: CC(C)NC[C@H](O)COc1cccc2ccccc12 (racemic) [Propanolol, reference compound]
- Potency [1]: 0.2 mg/kg/180 min
- % I (Percent inhibition of heart rate response to isoproterenol) [1]: 67 ± 6%

Compound: CC(C)(CNC(N)=O)NCC(O)COC(=O)c1ccccc1F (centres unmarked) [Example X, 3-[1,1-Dimethyl-2-(aminocarbonylamino)]ethylamino-2-hydroxypropyl 2-Fluorobenzoate]
- Kb [2, 8]: 0.02 µM
- Recovery Time 80% [1]: 21 min
- Potency [1]: 0.7 mg/kg/180 min
- % I (Percent inhibition of heart rate response to isoproterenol) [1]: 49%
- remaining at 1 h [3]: 0%
- remaining at 2 h [3]: 0%
- remaining at 1 h [4]: 0%
- remaining at 2 h [4]: 0%
- remaining at 1 h [5]: 0%
- remaining at 2 h [5]: 0%
- half-life [6]: 15 min
- half-life [7]: 2.5 min

Compound: O=C(Cc1ccccc1)NCCNCC(O)COC(=O)c1ccccc1F (centres unmarked) [XIII, 3-[2-(Benzylcarbonylamino)ethyl]amino-2-hydroxypropyl 2-Fluorobenzoate Hydrochloride]
- Kb [2, 8]: > 1 µM

Compound: CCOC(=O)NCC(C)(C)NCC(O)COC(=O)c1ccccc1F (centres unmarked) [IX, 3-[1,1-Dimethyl-2-(ethoxycarbonylamino)]ethylamino-2-hydroxypropyl 2-Fluorobenzoate Hydrochloride]
- Kb [2, 8]: 0.0794 µM
- Recovery Time 50% [1]: 3 ± 1 min
- Recovery Time 80% [1]: 8 ± 3 min
- Potency [1]: 6.5 ± 1.8 mg/kg/180 min
- % I (Percent inhibition of heart rate response to isoproterenol) [1]: 49 ± 4%
- remaining at 1 h [3]: 0%
- remaining at 2 h [3]: 0%
- remaining at 1 h [4]: 0%
- remaining at 2 h [4]: 0%
- remaining at 1 h [5]: 0%
- remaining at 2 h [5]: 0%
- half-life [6]: 8 min
- half-life [7]: 1 min

Compound: CC(=O)NCC(C)NCC(O)COC(=O)c1ccccc1F (centres unmarked) [III, 3-[1-methyl-2-(methylcarbonylamino)]ethylamino-2-hydroxypropyl 2-Fluorobenzoate]
- Kb [2, 8]: > 0.501 µM

Compound: CC(C)C(=O)NCCNCC(O)COC(=O)c1ccccc1F (centres unmarked) [Example I, 3-[[2-(Isopropylcarbonylamino)]ethyl]amino-2-hydroxypropyl 2-Fluorobenzoate Hydrochloride]
- Kb [2, 8]: 0.794 µM

Compound: CC(=O)NCC(C)(C)NCC(O)COC(=O)c1ccccc1F (centres unmarked) [IV, 3-[1,1-Dimethyl-2-(methylcarbonylamino)]ethylamino-2-hydroxypropyl 2-Fluorobenzoate]
- Kb [2, 8]: 0.0316 µM
- Recovery Time 50% [1]: 7 min
- Recovery Time 80% [1]: 35 min
- Potency [1]: 2.7 mg/kg/180 min
- % I (Percent inhibition of heart rate response to isoproterenol) [1]: 61%
- remaining at 1 h [3]: 0%
- remaining at 2 h [3]: 0%
- remaining at 1 h [4]: 39%
- remaining at 2 h [4]: 23%
- remaining at 1 h [5]: 87%
- remaining at 2 h [5]: 52%
- half-life ([5]; approximate value determined by procedure C, read-out: T1/2 dog aqueous humor): ~120 min
- half-life [6]: 7.5 min

Compound: CN(C)S(=O)(=O)NCC(C)(C)NCC(O)COC(=O)c1ccccc1F (centres unmarked) [XXXII, 3-[1,1-Dimethyl-2-(dimethylaminosulfonylamino)]ethylamino-2-hydroxypropyl 2-Fluorobenzoate Oxalate]
- Kb [2, 8]: 0.0398 µM

Compound: CNC(=O)NCC(C)(C)NCC(O)COC(=O)c1ccccc1F (centres unmarked) [Example XI, 3-[1,1-Dimethyl-2-(methylaminocarbonylamino)]ethylamino-2-hydroxypropyl 2-Fluorobenzoate Hemioxalate]
- Kb [2, 8]: 0.316 µM
- Recovery Time 80% [1]: > 60 min
- Potency [1]: 0.2 mg/kg/180 min
- % I (Percent inhibition of heart rate response to isoproterenol) [1]: 81% and 71%

Compound: CC(C)(CNS(=O)(=O)c1ccccc1)NCC(O)COC(=O)c1ccccc1F (centres unmarked) [VIII, 3-[1,1-Dimethyl-2-(phenylsulfonylamino)]ethylamino-2-hydroxypropyl 2-Fluorobenzoate Oxalate]
- Kb [2, 8]: 0.1 µM
- % I (Percent inhibition of heart rate response to isoproterenol) [1]: 43% and 55%
- remaining at 1 h [3]: 0%
- remaining at 2 h [3]: 0%
- remaining at 1 h [4]: 0%
- remaining at 2 h [4]: 0%
- half-life [6]: 15 min

Compound: CC(C)(CNC(=O)N1CCOCC1)NCC(O)COC(=O)c1ccc(O)c(O)c1 (centres unmarked) [Example XXXV, 3-[2-[1,1-Dimethyl-2-(1-morpholinocarbonylamino)]ethyl]amino-2-hydroxypropyl 3,4-Dihydroxybenzoate Oxalate Monohydrate]
- Kb [2, 8]: 0.00631 µM

Compound: CC(C)(CNC(=O)C1CCCCC1)NCC(O)COC(=O)c1ccccc1F (centres unmarked) [Example VI, 3-[1,1-Dimethyl-2-(cyclohexylcarbonylamino)]ethylamino-2-hydroxypropyl 2-Fluorobenzoate Oxalate]
- Kb [2, 8]: 0.02 µM
- Recovery Time 50% [1]: 8 ± 3 min
- Recovery Time 80% [1]: 12 ± 3 min
- Potency [1]: 1.4 mg/kg/180 min
- % I (Percent inhibition of heart rate response to isoproterenol) [1]: 61%

The next lines start with results.

- Kb [2, 8]: 0.00794 µM
Compound: CC(C)(CNC(=O)N1CCOCC1)NCC(O)COC(=O)c1ccc(O)cc1 (centres unmarked) [XXXVI, 3-[1,1-Dimethyl-2-(1-morpholinocarbonylamino)]ethylamino-2-hydroxypropyl 4-Hydroxbenzoate Oxalate]

- Kb [2, 8]: 0.00501 µM
Compound: CC(C)(CNC(=O)N1CCOCC1)NCC(O)COC(=O)c1ccccc1 (centres unmarked) [XXXIII, 3-[1,1-Dimethyl-2-(1-morpholinocarbonylamino)]ethylamino-2-hydroxypropyl Benzoate Oxalate Hemihydrate]

- pA2 (atria) ([2]; Table IV): 7.6
Compound: CC(C)(CNC(=O)N1CCOCC1)NCC(O)COC(=O)c1ccco1 (centres unmarked)
- % Inhibition [1]: 40%
- Time for 50% Rec. [1]: 9 min
- Time for 80% Rec. [1]: 30 min

- Kb [2, 8]: 0.0126 µM
Compound: CC(C)(CNC(=O)N1CCOCC1)NCC(O)COC(=O)c1ccccc1Cl (centres unmarked) [XXXIV, 3-[1,1-Dimethyl-2-(1-morpholinocarbonylamino)]ethylamino-2-hydroxypropyl 2-Chlorobenzoate Oxalate]

- Kb [2, 8]: 0.02 µM
Compound: COCCOC(=O)NCC(C)(C)NCC(O)COC(=O)c1ccccc1F (centres unmarked) [XXXI, 3-[1,1-Dimethyl-2-[2-[(2-methoxy)ethoxycarbonylamino]]ethylamino-2-hydroxypropyl 2-Fluorobenzoate Oxalate]

- PA2 Rt. Atria ([2]; Table I, guinea pig right atria, isoproterenol agonist, 60-minute incubation, 37° C.): 8.2
Compound: Cc1cc(O)ccc1C(=O)OCC(O)CNC(C)(C)CNC(=O)N1CCOCC1 (centres unmarked) [XXXVII, 3-[1,1-Dimethyl-2-(1-morpholinocarbonylamino)]ethylamino-2-hydroxypropyl 2-Methyl-4-hydroxybenzoate Oxalate]

- Kb ([2]; Table IV, read-out: pA2 (atria) (converted)): 0.1 µM
Compound: CC(C)(CNC(=O)N1CCCCC1)NCC(O)COC(=O)c1ccco1 (centres unmarked)
- % Inhibition [1]: 59%
- Time for 50% Rec. [1]: 5 min
- Time for 80% Rec. [1]: 17 min
